Test results from patent US20090217393A1, “Growth Promoting Agent and Life Prolonging Agent” (B FOOD SCIENCE CO., LTD., priority 2005, published 2009).

Legend:
[1] = system: shiitake; test: Mushroom (shiitake) cultivation test; assay type: in vivo; conditions: for Number of mushroom with pileus diameter of 5 cm or more: 8 days later, control 2
Protocol: A shiitake cultivation test was performed using a commercially available shiitake cultivation kit.
The cultivation kit is a product produced by hardening wood chips prepared by pulverizing broad-leaved tree, together with a nutritional supplement and a shiitake fungus into a block form. The blocks were separately immersed in aqueous solutions containing 0% by mass (no addition), 0.05% by mass, 0.5% by mass, and 5% by mass of erythritol, and the surfaces of the blocks were washed. Then, the blocks were placed in plastic bags to prevent drying, and the tops of the bags were closed with clothespins, followed by cultivation of the shiitake while adjusting the temperature to 23° C. during the daytime and to 8° C. during the nighttime. Whenever the surfaces of the blocks were dried, the surfaces of the blocks were moisturized using a spray with the aqueous solutions containing erythritol at the above-mentioned each concentration. 3 days later, the shiitake started to germinate on the blocks, and 8 days later, the diameter and number of each pileus of the shiitake were measured.

[2] = system: yeast Saccharomyces cerevisiae; test: Yeast culture test; assay type: cell-based; conditions: SD medium containing 0.006% by mass of erythritol
Protocol: A yeast Saccharomyces cerevisiae was cultured in an SD medium containing 0.006% by mass of erythritol (erythritol-added group; the present invention) and in an SD medium containing no erythritol (no-erythritol-added group; control). 27 hours later, absorbances at 660 nm were measured.

[3] = system: Layers (white Plymouth Rock); test: Layer growth test; assay type: in vivo; conditions: feed containing 5% by mass of erythritol
Protocol: Layers (white Plymouth Rock) were divided into a group fed with a feed containing 5% by mass of erythritol (erythritol-added group; the present invention) and a group fed with a feed containing no erythritol (no-erythritol-added group; control), and bred. The breeding was performed for 24 months, which was generally defined so as to generate economic benefits, and the survival rates were continuously watched. Meanwhile, average body weights (g) were continuously watched for four weeks.

[4] = system: Arabidopsis plants; test: Arabidopsis plant cultivation test; assay type: in vivo; conditions: Murashige & Skoog medium containing 0.06% by mass of erythritol; vs control
Text: Arabidopsis plants were separately inoculated into a Murashige & Skoog medium containing 0.06% by mass of erythritol (erythritol-added group; the present invention) and a medium containing no erythritol (no-erythritol-added group; control), followed by comparison of growth of the Arabidopsis plants.

[5] = system: Radish sprouts; test: Radish sprout cultivation test; assay type: in vivo
Protocol: Radish sprouts were cultivated in 0.75% agar mediums containing erythritol, mannitol, and sorbitol each at concentrations of 0.05% by mass, 0.1% by mass, and 0.5% by mass as sugar alcohols, and in an agar medium containing no sugar alcohol (0%). 3 and 6 days after germination, the lengths of radish sprouts were measured.

[6] = system: Crj:BDF1 mice (male); test: Mouse breeding test; assay type: in vivo; conditions: feed containing 5% by mass of erythritol
Text: Crj:BDF1 mice (male) were divided into a group fed with a feed containing 5% by mass of erythritol (erythritol-added group; the present invention) and a group fed with a feed containing no erythritol (no-erythritol-added group; control), and bred, followed by investigation of 50% survival times, 75% survival times, average survival times, survival rates, and maximum survival times.

[7] = 0.05% by mass sugar alcohol in 0.75% agar medium, After 3 days
[8] = 0.05% by mass sugar alcohol in 0.75% agar medium, After 6 days
[9] = 0.1% by mass sugar alcohol in 0.75% agar medium, After 3 days
[10] = 0.1% by mass sugar alcohol in 0.75% agar medium, After 6 days
[11] = 0.5% by mass sugar alcohol in 0.75% agar medium, After 3 days
[12] = 0.5% by mass sugar alcohol in 0.75% agar medium, After 6 days

In the case of `OC[C@@H](O)[C@@H](O)CO` [erythritol], the “Number of mushroom with pileus diameter of 5 cm or more” value (“Number of mushroom” for short) ([1]; 0.05% by mass erythritol aqueous solution) is reported as 8, the “Number of mushroom” value ([1]; 0.5% by mass erythritol aqueous solution) is reported as 5 and the “Number of mushroom” value ([1]; 5.0% by mass erythritol aqueous solution) is reported as 9. The “numbers of mushrooms with a pileus diameter of 5 cm or more compared with control” value ([1]; all the concentrations (0.05, 0.5, 5% by mass)) was “significantly increase”, the yeast proliferation effect [2] was “confirmed” and the “absorbance at 660 nm” value ([2]; 27 hours later, control 2.65) was 2.88. For the same compound, the “sizes of the yeast cells larger than control” value ([2]; under a microscope) was “about 20%”, the “survival rate compared with control” value ([3]; breeding for 24 months, FIG. 2) was “increased” and the “average body weight compared with control” value ([3]; watched for four weeks, FIG. 3) was “increased”. For the same compound, the “growth promoting effect on roots and leaves/stems” value [4] was “confirmed”, the “Lengths of radish sprouts” value [5, 7] was 46 mm and the “Lengths of radish sprouts” value [5, 8] was 109 mm. For the same compound, the “length of radish sprouts / growth promoting effect compared with no-sugar-alcohol-added group” value ([5]; 0.05 to 0.5% by mass in agar medium) was “particularly excellent growth promoting effects”, the “Lengths of radish sprouts” value [5, 9] was 30 mm and the “Lengths of radish sprouts” value [5, 10] was 76 mm. The “Lengths of radish sprouts” value [5, 11] was 31 mm, the “Lengths of radish sprouts” value [5, 12] was 87 mm and the 50% survival time ([6]; Crj:BDF1 male mice) was 927 days. The 75% survival time ([6]; Crj:BDF1 male mice) was 850 days, the Average survival time ([6]; Crj:BDF1 male mice) was 768 days and the Maximum survival time ([6]; Crj:BDF1 male mice) was 1,080 days. The “50% survival time compared with control” value ([6]; vs no-erythritol-added group) was “prolonged”, the “75% survival time compared with control” value ([6]; vs no-erythritol-added group) was “prolonged” and the “average survival time compared with control” value ([6]; vs no-erythritol-added group) was “prolonged”. The “maximum survival time compared with control” value ([6]; vs no-erythritol-added group) was “no significant difference” and the “survival rate compared with control” value ([6]; vs no-erythritol-added group) was “prolonged”.
In the case of `OC[C@@H](O)[C@@H](O)[C@H](O)[C@H](O)CO` [mannitol], the “Lengths of radish sprouts” value [5, 7] is reported as 15 mm, the “Lengths of radish sprouts” value [5, 8] is reported as 59 mm and the “Lengths of radish sprouts” value [5, 9] is reported as 29 mm. For the same compound, the “Lengths of radish sprouts” value [5, 10] was 61 mm, the “Lengths of radish sprouts” value [5, 11] was 24 mm and the “Lengths of radish sprouts” value [5, 12] was 55 mm.
For `OC[C@@H](O)[C@@H](O)[C@H](O)[C@@H](O)CO` [sorbitol], the “Lengths of radish sprouts” value [5, 7] was 30 mm, the “Lengths of radish sprouts” value [5, 8] was 68 mm and the “Lengths of radish sprouts” value [5, 9] was 31 mm. For the same compound, the “Lengths of radish sprouts” value [5, 10] was 64 mm, the “Lengths of radish sprouts” value [5, 11] was 27 mm and the “Lengths of radish sprouts” value [5, 12] was 52 mm.
